Common to all, as to assay type: cell-based, human
In one experiment the test system is CD15+/CD14− cells. As to the kind of experiment: Respiratory burst assay, dihydrorhodamine-123 / PMA (Example 39). The conditions noted are these: Formula I-expanded Differentiation Cultures, day 13; 200 nM PMA 30 minutes. The protocol: On day 13 of Granulocyte Differentiation Culture, a portion of the culture was removed for in vitro analysis of granulocyte function through two separate assays for phagocytosis and respiratory burst.
In the respiratory burst assay, the ability of cells to generate reactive oxygen species (used to kill ingested bacteria) was measured. Cells were first pulsed for 15 minutes with dihydrorhodamine-123, a reagent that fluoresces only after it has been oxidized to rhodamine 123. Following this incubation, cells were treated for 30 minutes with 200 nM phorbol 12-myristate 13-acetate (PMA) to non-specifically activate the respiratory burst. Control samples without PMA were also prepared. Following this incubation, cells were stained with antibodies to CD15 and CD14, washed thoroughly, then analyzed via flow cytometry on an Attune flow cytometer. CD15+/CD14− cells were quantified for rhodamine 123 fluorescence, indicating activation of oxidative burst.

In experiment [1] the test system is expanded cord blood CD34+ cells, lymphoid progenitors. As to the kind of experiment: Lymphoid Progenitor Differentiation Culture after Expansion Culture (Example 41). Particulars: for Fold Enhancement (vs. unexpanded) of CD10+ lineage output: 14 days Lymphoid Differentiation Culture. From the text:
Lymphoid Progenitor Differentiation Cultures (L Diff Cultures) were initiated prior to culture in +Formula I (Day 1 L Diff Culture), following 14 days of culture in +Formula I (14-day +Formula I-expanded L Diff Culture), following 14 days of culture in control conditions (14-day DMSO-expanded L Diff Culture) or following 21 days of culture in +Formula I (21-day +Formula I-expanded L Diff Culture).
12-well non-TC-treated plates were coated with StemSpan Lymphoid Differentiation Coating Material (STEMCELL Technologies) by incubation for two hours at room temperature. Immediately prior to initiation of L Diff Culture, wells were washed with PBS.
Purified CD34+ cells were plated at 20,000 cells per well, in Lymphoid Progenitor Expansion Medium (“LPEM”), comprising StemSpan SFEM II medium (STEMCELL Technologies) with StemSpan Lymphoid Progenitor Expansion Supplement (STEMCELL Technologies). Cells were plated in duplicate, in 500 μl/well, then placed in a humidified incubator at atmospheric oxygen and 5% CO2. Exact cell numbers dispensed per well were quantified with flow cytometry for later calculations.
On days three or five, an additional 500 μl/well of LPEM was added, then on days seven and eleven, half of the media was removed and replaced with fresh LPEM.
At seven and fourteen days, cells were analyzed via flow cytometry to quantify lymphoid lineage phenotypes of CD7+/CD5−, CD5+/CD7− and CD7+/CD5+, as well as presence of maturing B cells (CD19+), T cells (CD3+) or NK cells (CD56+).
“Per-Assayed-CD34+ Cell Output” describes the output of differentiated cells per CD34+ cell placed into Differentiation Culture, and is calculated by dividing the Corrected Count of lineage-positive cells by the number of CD34+ cells placed into quantified at Differentiation Culture initiation following 1, 14, 28, 42 or 64 days in Expansion Culture.
“Scaled Output” (or Scaled Output per CD34+ cell) describes the number of differentiated cells of a given lineage that may be produced from a single CD34+ cell following both Expansion Cell Culture (if expanded) followed by Differentiation Culture. This quantity is calculated by multiplying Per-Assayed-CD34+ Cell Output by the Fold Expansion of CD34+ cells from day 1 to the day of Differentiation Culture initiation (day 14, 28, 42 or 64). This quantity is synonymous with “per-expanded-dl-CD34+ cell output” used in Example 38 above.
“Fold Enhancement (vs. unexpanded)” was calculated to fully capture the benefit of Expansion Culture in +Formula I Conditions prior to Differentiation Culture. This quantity was calculated by dividing the Scaled Output output of a given cell population by the Per-Assayed-CD34+ Cell Output of that population from unexpanded cells placed into differentiation culture, as in the equation below. Each fold increase was calculated relative to the same number of days in differentiation culture, e.g. the fold increase of cells differentiated for six days was calculated by dividing the scaled output of expanded cells differentiated for six days by the output of unexpanded cells differentiated for six days. In the case of cells differentiated for 14 days, an exact match in unexpanded cells was not available, so output at differentiation day 13 was used as a denominator.

The test system of experiment [2] is CD15+ cells derived from cord blood CD34+ cells. Description: Progenitor Differentiation and Maturation Cultures, CD15+ output (Example 42). From the text: Progenitor Differentiation Cultures were initiated following 14, 28, 42 and 64 days of CD34 expansion culture. Differentiation Sequences were created by culturing cells in a series of Differentiation Medias, for six or seven days. Differentiation Medias were made with purified cytokines: SCF, G-CSF, GM-CSF, FLT3L, IL-3, IL-6, TPO (all from R&D Systems), prepared in either StemSpan SFEM I or RPMI+10% FBS, as indicated in Table 12A and Table 12B below. Approximately 5,000-10,000 CD34+ cells were seeded into the “Day 0 media” indicated in Table 13 in 12-well plates at the beginning of the Differentiation Culture. At day two or three, a portion of cells was seeded into the subsequent media in the Sequence. If media was to be changed to a different Differentiation Media at a given day, the cells were first placed into 15 mL conical tubes and centrifuged for 5 minutes at 300×g. All supernatant was removed prior to resuspension in new media and re-plating. At days 6 or 7, as indicated in Table 13 and Table 15, a portion of cells was analyzed. […]
A number of quantities were calculated to describe the output of Differentiation Culture and the combined effects of Expansion and Differentiation Culture. These quantities and their relationships are as described in Example 41 and depicted in FIG. 68.

Where [3] appears, read: 14 days in +Formula I Expansion Culture.
Setting [4] is: 21 days in +Formula I Expansion Culture.

For `CC(C)(C)C(=O)Nc1ccc2c(c1)C(O)c1ccccc1-2` (centres unmarked) [Compound 1.010], the “cells that activated respiratory burst when stimulated with PMA” value in the experiment with CD15+/CD14− cells was 56%. In experiment [1] (setting [3]), the “Fold Enhancement (vs. unexpanded) of CD7+/CD5+ lineage output” value was found to be 5.8 fold, the “Fold Enhancement (vs. unexpanded) of CD7+/CD5− lineage output” value is 6.3 fold, the “Fold Enhancement (vs. unexpanded) of CD7−/CD5+ lineage output” value is reported as 11 fold and the “Fold Enhancement (vs. unexpanded) of CD10+ lineage output” value is 5 fold. In experiment [1] (setting [4]), the “Fold Enhancement (vs. unexpanded) of CD7+/CD5+ lineage output” value stood at 238 fold, the “Fold Enhancement (vs. unexpanded) of CD7+/CD5− lineage output” value amounted to 46 fold, the “Fold Enhancement (vs. unexpanded) of CD7−/CD5+ lineage output” value was 180 fold and the “Fold Enhancement (vs. unexpanded) of CD10+ lineage output” value was 37 fold. Moreover, in experiment [2] (64 days of CD34+ expansion in +Formula I conditions, condition TT), the “fold increase of CD15+ cell output at days six or seven of Differentiation Culture” value was “about 43,000 fold”. Further, the “CD15+ cells as percentage of total live cells” value in experiment [2] (expanded in +Formula I conditions 14, 28 and 42 days, Medias A, B, C, H or T, by 6 to 7 days) is listed as greater than 47%.

Source of the values: patent US20220315895A1, “METHODS OF MAKING OLIGOPOTENT AND UNIPOTENT PRECURSORS” (Transfusion Health, LLC, priority 2019, published 2022).
